In US5262537A, “Derivatives of 4,5,6,7-tetrahydroimidazo-[4,5-c]pyridinyl-6-carboxylic acid” (priority 1993, dated 1993):
pIC50: −log10 of the molar value. Where a name gives a salt, the structure may show the parent alone. Read-outs that look alike come from different tables or passages of the source.

Legend:
5-HT3 = biological target: T1, 5-HT3 (Rattus norvegicus, UniProt P35563); assay: biochemical; assay type: binding, Male Sprague-Dawley rats
T1 sequence (P35563 24-483): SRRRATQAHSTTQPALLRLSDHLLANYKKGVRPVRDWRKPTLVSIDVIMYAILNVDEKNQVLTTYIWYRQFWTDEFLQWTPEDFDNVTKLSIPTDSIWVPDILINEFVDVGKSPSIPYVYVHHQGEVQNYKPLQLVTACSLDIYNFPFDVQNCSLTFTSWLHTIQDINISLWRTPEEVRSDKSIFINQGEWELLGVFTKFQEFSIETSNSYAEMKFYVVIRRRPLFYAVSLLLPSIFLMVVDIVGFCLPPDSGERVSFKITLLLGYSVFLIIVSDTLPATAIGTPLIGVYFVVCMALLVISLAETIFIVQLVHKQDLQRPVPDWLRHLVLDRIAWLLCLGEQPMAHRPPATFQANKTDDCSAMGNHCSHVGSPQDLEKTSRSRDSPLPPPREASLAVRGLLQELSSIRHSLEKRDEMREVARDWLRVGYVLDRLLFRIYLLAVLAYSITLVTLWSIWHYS
Description: A number of compounds in accordance with the present invention were tested for their 5-HT3 and D2 binding affinities in accord with the following procedures.
Male Sprague-Dawley rats (175-220 g) were sacrificed by decapitation and their brains removed rapidly. The entorhinal cortex was used for the 5-HT3 (5-hydroxytryptamine) binding assay and the remainder of the brain, minus the brain stem and cerebellum, was used for the D2 (dopamine) binding assay. The entorhinal cortex was harvested and prepared on the day of the assay.
The entorhinal cortex was homogenized in 20 volumes of cold 50 mM HEPES buffer, pH 7.4, while the remaining brain tissue was homogenized in 20 volumes of cold 50 mM Tris, pH 7.4. The homogenates were centrifuged at 4800×g for 15 minutes at 5° C. and the supernatants decanted. Pellets were resuspended in the original volume of HEPES or Tris. Homogenates were centrifuged and the supernatants decanted. Pellets were resuspended in the same volume of HEPES or Tris and incubated at 37° C. for 45 minutes to remove endogenous neurotransmitters. Homogenates were centrifuged and the supernatants were decanted. Pellets for D2 assays were stored at -50° C. until the day of the assay. The pellets for the 5-HT3 assay (entorhinal cortex) were resuspended in the appropriate amount of HEPES buffer and used promptly. Modifications of published assays for [^3 H]GR65630 (Kilpatrick et al., Nature: 330, 746-748 (1987)) and [^3 H]raclopride (Dewar et al., J. Pharmacol. Exp. Ther.: 250, 696-706 (1989) and Lidow et al., Proc. Natl. Acad. Sci. USA: 86, 6412-6416 (1989)) were used for the 5-HT3 and D2 binding assays, respectively.
Briefly, 0.25 ml of homogenate was incubated with either 0.2 nM of [^3 H]GR65630 or 1.0 nM of [^3 H]raclopride in a final volume of 0.5 ml. D2 binding also requires sodium chloride and potassium chloride (120 mM and 5 mM, final concentration, respectively). In the 5-HT3 assay, non-specific binding was defined in the presence of 100 uM quipazine. In the D2 assay, non-specific binding was defined in the presence of 100 uM of (+/-) sulpiride. Both assays were incubated at room temperature; [^3 H]GR65630 for 40 minutes and [^3 H]raclopride for 60 minutes. Test compounds (0.1 ml) were added to incubates where appropriate. Bound ligand was separated from free ligand by filtration and quantified using liquid scintillation spectrophotometry. IC50 values were calculate for all test compounds.

Ferret = assay: Cisplatin Ferret Assay--Antiemetic Screening; assay type: in vivo, Male ferrets; details: for inhibition in vivo at 0.1 mg/kg / ED50: Mustela putorius, iv, 4 h; for inhibition in vivo at 0.1 mg/kg: read-out: Ferret Cisplatin Test % Prot, 0.1 mg/Kg; for ED50: read-out: Ferret Cisplatin Test ED50
Description: Male ferrets (castrated, descented, 1-2 kg) were purchased from Triple F Farms, Syre, Pa. Ferrets were housed four in a cage with a 12 hour light cycle and were fed ad libitum with Ralston Purina Cat Chow. Each ferret was used unfasted for the assay after a minimum of a 24 hour acclimation time in animal facility.
Ferret Preparation. Each ferret was anesthetized with 5% isoflurane-O2in a 20 gallon aquarium for 2 to 5 minutes. After removal of the anesthetic gas, the animals were removed and weighed. Injections were made into the dorsal front paw vein using a tourniquet and a 1 ml tuberculin syringe with a 25 g needle while the animal was maintained under anesthesia using a small nose cone delivering 5% isoflurane-O2. Cisplatin was injected using a 3 ml or 5 ml syringe in the opposite paw from the study compound or saline. Recovery time from anaesthesia was 5 to 8 minutes.
Drug Preparation. Cisplatin bulk powder was weighed and dissolved in normal saline at 75° C. to provide a 5 mg/ml solution (90 mg was placed in a scintillation vial and qs with 18 ml saline). The solution was stirred and maintained at 40° C. until ready for use. The study drug was weighed and dissolved in normal saline at room temperature to provide a 1 mg/ml solution (10 mg was placed in a scintillation vial and qs with 10 ml saline). Suspensions were heated to 40° C. to bring the study compound into solution. Compounds not soluble under these conditions were not assayed.
Assay. Cisplatin was injected i.v. at 10 mg/kg into twelve anesthetized ferrets daily at time zero. Normal saline (0.5 ml) or the study compound (0.1 or 1.0 mg/kg) was injected 30 minutes later in groups of three anesthetized ferrets. Order of treatment and treatment dose was selected at random, with the remaining treatment dose assayed in the next experiment.
Experimental Observations and Data Collection. Ferrets were viewed individually. The time and number of emetic episodes were recorded for four hours. Zero time was equivalent to the time of cisplatin injection. […] Retches were recorded but not counted. The total number of episodes for each of the four groups of three ferrets (+/-S.E.) was averaged and the effect of treatment (% protection) was calculated as the percent reduction of emetic episodes compared to controls. [formula]
Percent protection values were determined from experimental controls. Experimental controls were those obtained from the day of the experiment. Onset times of the first episode were averaged and recorded for each group. Prodromal signs (lip licking, slit eyes, head shaking, salivation, scratching, clawing, walking backward, sedation, urination, and defecation) were also averaged and recorded.

[1] = 0.2 nM [3H]GR65630, rat entorhinal cortex, 40 minutes, room temperature, read-out: 5-HT3 IC50
[2] = 0.1 mg/kg i.v., 30 minutes after cisplatin 10 mg/kg i.v., percent reduction of emetic episodes vs controls, four hours
[3] = i.v., 30 minutes after cisplatin 10 mg/kg i.v., emetic episodes over four hours

SMILES | pIC50 (5-HT3; [1]) | inhibition in vivo at 0.1 mg/kg (Ferret; [2]) [%] | ED50 (Ferret; [3]) [mg/kg] | inhibition in vivo at 0.1 mg/kg (Ferret) [%] | Ferret Cisplatin Test % Prot, 0.1 mg/Kg (Ferret; [2]) [%] | pIC50 (5-HT3) | ED50 (Ferret) [mg/kg]
CN1Cc2nc[nH]c2C[C@H]1C(=O)Nc1cccc2nsnc12 [Compd 23] | 7.80 | 100 | 0.016 | – | – | – | –
CC(=O)c1ccccc1NC(=O)[C@@H]1Cc2[nH]cnc2C(C)(C)N1 [Compd 48] | 6.80 | 100 | 0.0098 | – | – | – | –
CN1Cc2nc[nH]c2C[C@H]1C(=O)Nc1ccc(F)c(F)c1F [Compd 35] | 6.80 | 20 | 0.19 | – | – | – | –
COc1ccc2oc(C(=O)[C@@H]3Cc4[nH]cnc4CN3C)cc2c1 [Compd 41] | 4.89 | – | – | 9 | – | – | –
COc1ccccc1NC(=O)[C@@H]1Cc2[nH]cnc2CN1C [Compd 6] | 8.31 | 77 | 0.023 | – | – | – | –
CN1Cc2nc[nH]c2C[C@@H]1C(=O)Nc1ccccc1O [Compd 1] | 7.96 | 73 | 0.063 | – | – | – | –
CN1Cc2nc[nH]c2C[C@H]1C(=O)Nc1ccccc1O [Compd 15, (S)-6-(2-hydroxyphenylaminocarbonyl)-5-methyl-4,5,6,7-tetrahydroimidazo[4,5-c]pyridine] | 7.21 | 99 | 0.007 | – | – | – | –
CN1Cc2nc[nH]c2C[C@H]1C(=O)Nc1ccccc1Cl [Compd 37] | 7.57 | 42 | 0.065 | – | – | – | –
COC(=O)c1ccccc1NC(=O)[C@@H]1Cc2[nH]cnc2CN1C [Compd 16] | 7.54 | 42 | 0.01 | – | – | – | –
CN1Cc2nc[nH]c2C[C@@H]1C(=O)Nc1cccc2nsnc12 [Compd 21] | 8.70 | 24 | 0.39 | – | – | – | –
COc1ccccc1NC(=O)[C@H]1Cc2[nH]cnc2CN1C [Compd 3] | 7.32 | 9 | 2.08 | – | – | – | –
COc1ccc(OC)c(NC(=O)[C@@H]2Cc3nc[nH]c3CN2C)c1 [Compd 30, (S)-6-(2,5-dimethoxyphenylaminocarbonyl)-5-methyl-4,5,6,7-tetrahydoimidazo[4,5-c]pyridine dihydrochloride] | 7.16 | 5 | – | – | – | – | –
CN1Cc2nc[nH]c2C[C@@H]1C(=O)Nc1ccccc1Oc1ccccc1 [Compd 11] | 8.09 | 15 | 0.47 | – | – | – | –
CN1Cc2nc[nH]c2C[C@H]1C(=O)c1cccs1 [Compd 28] | 6.19 | – | – | 0 | – | – | –
CN1[C@H](C(=O)Nc2ccccc2O)Cc2[nH]cnc2C1(C)C [Compd 24] | 7.33 | 48 | 0.025 | – | – | – | –
CN1C2CCCC1CC(NC(=O)c1nn(C)c3ccccc13)C2 (stereo not shown) [Granisetron, reference compound] | – | 71 | 0.03 | – | – | – | –
CN1Cc2nc[nH]c2C[C@H]1C(=O)Nc1cccc(F)c1F [Compd 31] | 6.19 | 91 | 0.068 | – | – | – | –

SMILES | pIC50 (5-HT3; [1]) | inhibition in vivo at 0.1 mg/kg (Ferret; [2]) [%] | ED50 (Ferret; [3]) [mg/kg] | inhibition in vivo at 0.1 mg/kg (Ferret) [%] | Ferret Cisplatin Test % Prot, 0.1 mg/Kg (Ferret; [2]) [%] | pIC50 (5-HT3) | ED50 (Ferret) [mg/kg]
COc1ccccc1NC(=O)[C@@H]1Cc2nc[nH]c2C(C)(C)N1 [Compd 20] | 7.66 | – | 0.008 | – | 72 | – | –
CN1Cc2nc[nH]c2C[C@H]1C(=O)Nc1ccccc1Oc1cccc(C(F)(F)F)c1 [Compd 44] | 8.02 | 1 | 0.26 | – | – | – | –
CN1Cc2nc[nH]c2C[C@H]1C(=O)c1ccccc1 [Compd 38] | – | – | – | 30 | – | 7.31 | –
CC(=O)c1ccccc1NC(=O)[C@@H]1Cc2[nH]cnc2CN1C [Compd 39, (S)-6-(2-acetylphenylaminocarbonyl)-5-methyl-4,5,6,7-tetrahydroimidazo[4,5-c]pyridine] | 8.38 | 65 | 0.045 | – | – | – | –
CN1Cc2nc[nH]c2C[C@@H]1C(=O)Nc1ccccc1 [Compd 9] | 7.24 | 26 | 0.33 | – | – | – | –
CN1Cc2nc[nH]c2C[C@H]1C(=O)Nc1ccccc1N [Compd 42] | 5.46 | 39 | 0.23 | – | – | – | –
COc1ccccc1NC(=O)[C@@H]1Cc2[nH]cnc2CN1C(C)=O [Compd 47, (S)-5-acetyl-6-(2-methoxyphenylaminocarbonyl)-4,5,6,7-tetrahydroimidazo[4,5-c]pyridine] | – | 81 | 0.044 | – | – | – | –
Cc1nccn1CC1CCc2c(c3ccccc3n2C)C1=O (stereo not shown) [Ondansetron, reference compound] | – | 77 | 0.041 | – | – | – | –
CN1Cc2nc[nH]c2C[C@H]1C(=O)Nc1nc2ccccc2s1 [Compd 22] | 7.43 | 14 | – | – | – | – | –
CN1Cc2nc[nH]c2C[C@H]1C(=O)Nc1ccccc1F [Compd 29] | 6.47 | 88 | 0.024 | – | – | – | –
CN1Cc2nc[nH]c2C[C@H]1C(=O)Nc1c(F)cccc1F [Compd 34] | 6.21 | 59 | 0.15 | – | – | – | –
CN1Cc2nc[nH]c2C[C@H]1C(=O)c1cc2ccccc2s1 [Compd 32, 6-(2-benzo[b]thiophenylcarbonyl)-5-methyl-4,5,6,7-tetrahydroimidazo[4,5-c]pyridine] | 6.63 | – | – | 41 | – | – | 0.11
CN1Cc2nc[nH]c2C[C@H]1C(=O)Nc1ccccc1Oc1cccc(F)c1 [Compd 45] | 8.15 | 67 | 0.042 | – | – | – | –
CC1(C)N[C@H](C(=O)Nc2ccccc2Oc2ccccc2)Cc2[nH]cnc21 [Compd 49, (S)-6-(2-phenoxy-phenylaminocarbonyl)-4,4-dimethyl-4,5,6,7-tetrahydroimidazo[4,5-c]pyridine] | 8.07 | 76 | 0.022 | – | – | – | –
COc1ccccc1NC(=O)[C@@H]1Cc2[nH]cnc2C(C)(C)N1C [Compd 25] | 7.85 | 93 | 0.026 | – | – | – | –
CCOc1ccccc1NC(=O)[C@@H]1Cc2[nH]cnc2CN1C [Compd 17] | 7.81 | 58 | 0.2 | – | – | – | –
